In publication PMC7532004, “Site-specific effects of neurosteroids on GABAA receptor activation and desensitization” (eLife, 2020):

Target: T1, α1β3 GABAAR WT (Homo sapiens, UniProt P14867+P28472)
T1 construct: inserted between the fourth and fifth residues of the mature peptide; photolabeling full-length heteropentameric GABAARs in native membranes; expressed in transfected cells
T1 sequence (P14867 28-456): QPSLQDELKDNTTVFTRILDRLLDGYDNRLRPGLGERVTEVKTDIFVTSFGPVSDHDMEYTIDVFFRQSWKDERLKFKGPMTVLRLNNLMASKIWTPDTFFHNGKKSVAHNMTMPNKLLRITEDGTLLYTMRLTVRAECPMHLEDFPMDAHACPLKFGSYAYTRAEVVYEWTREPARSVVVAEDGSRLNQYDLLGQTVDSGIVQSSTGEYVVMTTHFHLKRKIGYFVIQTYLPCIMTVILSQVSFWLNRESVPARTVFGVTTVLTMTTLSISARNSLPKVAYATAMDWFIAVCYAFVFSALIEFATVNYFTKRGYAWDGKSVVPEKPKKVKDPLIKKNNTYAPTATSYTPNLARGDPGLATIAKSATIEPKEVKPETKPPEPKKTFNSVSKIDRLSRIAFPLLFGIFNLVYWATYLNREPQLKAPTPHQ
T1 sequence (P28472 26-473): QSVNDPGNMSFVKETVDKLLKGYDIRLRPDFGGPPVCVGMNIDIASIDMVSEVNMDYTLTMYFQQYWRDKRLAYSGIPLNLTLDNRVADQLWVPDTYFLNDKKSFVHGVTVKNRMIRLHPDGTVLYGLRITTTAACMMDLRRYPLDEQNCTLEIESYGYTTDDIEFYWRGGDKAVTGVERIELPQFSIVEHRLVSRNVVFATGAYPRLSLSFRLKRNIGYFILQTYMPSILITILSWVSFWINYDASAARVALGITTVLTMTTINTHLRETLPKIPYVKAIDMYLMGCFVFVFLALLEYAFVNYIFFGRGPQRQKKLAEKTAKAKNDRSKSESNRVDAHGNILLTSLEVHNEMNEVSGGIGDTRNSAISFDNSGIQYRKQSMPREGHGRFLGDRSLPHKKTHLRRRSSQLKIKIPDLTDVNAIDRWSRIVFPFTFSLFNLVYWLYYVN
Assay: [3H]muscimol binding to HEK cell membranes (neurosteroid modulation and isotherms), WT receptor
Settings: WT α1β3
Protocol: Stably transfected cells were plated into dishes. After reaching 50% confluence, GABAA receptors were expressed by inducing cells with 1 μg/ml of doxycycline with the addition of 5 mM sodium butyrate. Cells were harvested 48 to 72 hr after induction. HEK cells, after induction, were grown to 100% confluence, harvested and washed with 10 mM potassium phosphate, 100 mM potassium chloride (pH 7.5) plus protease inhibitors (Sigma-Aldrich, St. Louis, MO) two times. The cells were collected by centrifugation at 1,000 g at 4°C for 5 min. The cells were homogenized with a glass mortar and a Teflon pestle for ten strokes on ice. The pellet containing the membrane proteins was collected after centrifugation at 20,000 g at 4°C for 45 min and resuspended in a buffer containing 10 mM potassium phosphate, 100 mM potassium chloride (pH 7.5). The protein concentration was determined with micro-BCA protein assay and membranes were stored at −80°C.
[^3H]muscimol-binding assays were performed using a previously described method ([Chen et al., 2019]). […] Assay tubes were incubated for 1 hr on ice in the dark. […] Membranes were collected on Whatman/GF-C glass filter papers using a Brandel cell harvester (Gaithersburg, MD). To perform [^3H]muscimol binding isotherms, 100 μg/ml aliquots of membrane protein were incubated with 0.3 nM–1 μM [^3H]muscimol for 1 hr on ice in the dark. The specific activity for [^3H]muscimol concentrations from 30 nM to 1 μM was reduced to 2 Ci/mmol by dilution with nonradioactive muscimol. The membranes were collected on Whatman/GF-B glass filter papers using a vacuum manifold. […] For [^3H]muscimol-binding experiments examining competitive interactions between neurosteroids, the combined neurosteroids (0.3 μM 3α5αP or 3 μM KK148 ±30 μM KK150) or the same volume of dimethyl sulfoxide (DMSO) were added to the membranes which were then incubated with 3 nM [^3H]muscimol on ice for 1 hr. Time courses of neurosteroid [^3H]muscimol binding enhancement were examined by adding 10 µM of neurosteroids (3α5αP, 3β5αP) to membranes that had been fully equilibrated with 3 nM [^3H]muscimol for 1 hr on ice; binding was then measured as a function of time at 1, 3, 10, 30, 60 min. The membranes were collected on Whatman/GF-B glass filter papers using a vacuum manifold. Radioactivity bound to the filters was measured by liquid scintillation spectrometry using Bio-Safe II (Research Products International, Mount Prospect, IL).

Structure (SMILES): CCOC(=O)c1cncn1[C@H](C)c1ccccc1 [Etomidate, etomidate]
- Emax (% of control) of [3H]muscimol binding (3 nM [3H]muscimol, 100% means no effect): 331.1 ± 9.9 % of control
- Bmax of [3H]muscimol binding isotherm in the presence of the modulator (etomidate 100 μM, 3α5αP 30 μM, KK148 30 μM, control 9.8 ± 0.8): 10.1 ± 0.5 pmol/mg
